Data published in the NIST ThermoML archive (doi:10.1021/je100089s).

Test: xn = mol fraction of the nth substance listed
Details: Liquid, Vibrating tube method

OCCO [1,2-ethanediol] + C[S+](C)[O-]
mass density [kg/m3]
Details	298.15 K	308.15 K
101 kPa, x2 = 0.07007	–	1102.45
101 kPa, x2 = 0.1097	–	1102.12
101 kPa, x2 = 0.1408	–	1101.88
101 kPa, x2 = 0.1934	–	1101.33
101 kPa, x2 = 0.234	–	1100.86
101 kPa, x2 = 0.3244	–	1099.65
101 kPa, x2 = 0.3764	–	1098.89
101 kPa, x2 = 0.4429	–	1097.76
101 kPa, x2 = 0.4892	–	1096.94
101 kPa, x2 = 0.6298	–	1094.18
101 kPa, x2 = 0.6946	–	1092.91
101 kPa, x2 = 0.8142	–	1090.07
101 kPa, x2 = 0.9266	–	1087.25
101 kPa, x2 = 0.9577	–	1086.43
101 kPa, x2 = 0.9836	–	1085.76
101 kPa, x2 = 0.992	–	1085.53
101 kPa, x2 = 0.9968	–	1085.39
10000 kPa, x2 = 0	–	1107.05
10000 kPa, x2 = 0.0181	–	1107.03
10000 kPa, x2 = 0.0403	–	1106.95
10000 kPa, x2 = 0.0701	–	1106.68
10000 kPa, x2 = 0.1097	–	1106.18
10000 kPa, x2 = 0.1408	–	1105.87
10000 kPa, x2 = 0.1934	–	1105.29
10000 kPa, x2 = 0.234	–	1104.74
10000 kPa, x2 = 0.3244	–	1103.53
10000 kPa, x2 = 0.4429	–	1101.57
10000 kPa, x2 = 0.4892	–	1100.74
10000 kPa, x2 = 0.5654	–	1099.47
10000 kPa, x2 = 0.6946	–	1097.4
10000 kPa, x2 = 0.8142	–	1094.91
10000 kPa, x2 = 0.9266	–	1092.99
10000 kPa, x2 = 0.9836	–	1091.87
25000 kPa, x2 = 0	–	1112.97
25000 kPa, x2 = 0.0181	–	1113.01
25000 kPa, x2 = 0.0403	–	1112.98
25000 kPa, x2 = 0.0701	–	1112.81
25000 kPa, x2 = 0.1097	–	1112.54
25000 kPa, x2 = 0.1408	–	1112.37
25000 kPa, x2 = 0.1934	–	1111.97
25000 kPa, x2 = 0.234	–	1111.63
25000 kPa, x2 = 0.3244	–	1110.76
25000 kPa, x2 = 0.4429	–	1109.29
25000 kPa, x2 = 0.4892	–	1108.61
25000 kPa, x2 = 0.5654	–	1107.59
25000 kPa, x2 = 0.6946	–	1105.69
25000 kPa, x2 = 0.8142	–	1103.81
25000 kPa, x2 = 0.9266	–	1101.96
25000 kPa, x2 = 0.9836	–	1100.89
50000 kPa, x2 = 0	–	1122.28
50000 kPa, x2 = 0.0181	–	1122.41
50000 kPa, x2 = 0.0403	–	1122.46
50000 kPa, x2 = 0.0701	–	1122.47
50000 kPa, x2 = 0.1097	–	1122.52
50000 kPa, x2 = 0.1408	–	1122.47
50000 kPa, x2 = 0.1934	–	1122.32
50000 kPa, x2 = 0.234	–	1122.23
50000 kPa, x2 = 0.3244	–	1121.85
50000 kPa, x2 = 0.3764	–	1121.58
50000 kPa, x2 = 0.4429	–	1121.09
50000 kPa, x2 = 0.4892	–	1120.71
50000 kPa, x2 = 0.5654	–	1120.07
50000 kPa, x2 = 0.6946	–	1118.74
50000 kPa, x2 = 0.9266	–	1115.8
50000 kPa, x2 = 0.9836	–	1115.04
75000 kPa, x2 = 0	–	1131.41
75000 kPa, x2 = 0.0181	–	1131.6
75000 kPa, x2 = 0.0403	–	1131.72
75000 kPa, x2 = 0.0701	–	1131.86
75000 kPa, x2 = 0.1097	1138.51	1132.17
75000 kPa, x2 = 0.1408	1138.73	1132.33
75000 kPa, x2 = 0.1934	1138.98	1132.37
75000 kPa, x2 = 0.234	1139.19	1132.39
75000 kPa, x2 = 0.3244	1139.38	1132.45
75000 kPa, x2 = 0.3764	1139.43	1132.41
75000 kPa, x2 = 0.4429	1139.4	1132.2
75000 kPa, x2 = 0.4892	1139.31	1132.04
75000 kPa, x2 = 0.5654	1139.23	1131.68
75000 kPa, x2 = 0.6946	1138.74	1130.89
75000 kPa, x2 = 0.8142	1137.98	1129.86
75000 kPa, x2 = 0.9266	1137.07	1128.85
75000 kPa, x2 = 0.9836	–	1128.14
100000 kPa, x2 = 0	1145.51	1139.57
100000 kPa, x2 = 0.0181	1145.75	1139.78
100000 kPa, x2 = 0.0403	1145.93	–
100000 kPa, x2 = 0.0701	1146.24	–
100000 kPa, x2 = 0.1097	1146.54	–
100000 kPa, x2 = 0.1408	1146.83	–
100000 kPa, x2 = 0.1934	1147.29	–
100000 kPa, x2 = 0.234	1147.46	–
100000 kPa, x2 = 0.3244	1147.77	–
100000 kPa, x2 = 0.3764	1147.93	–
100000 kPa, x2 = 0.4429	1148.01	–
100000 kPa, x2 = 0.4892	1147.94	–
100000 kPa, x2 = 0.5654	1147.85	–
100000 kPa, x2 = 0.6946	1147.55	–
100000 kPa, x2 = 0.8142	1146.87	–
100000 kPa, x2 = 0.9266	1146.03	–
